Measurements reported in US8518372B2, “Coronin 1 modulators for the treatment of autoimmune and Lymphoproliferative disorders and mycobacterial infections” (priority 2006, dated 2013).
Like-named read-outs stand apart in the source and are kept apart here.

Experiments:
[1] = tested on: M. bovis BCG in bone marrow derived macrophages; format: cell-based, mice; conditions: for lysosomal delivery of mycobacteria: infection 1 h, chase 3 h
Mycobacterium bovis BCG = format: cell-based
mycobacteria = experiment: Bacterial proliferation in presence or absence of calcineurin inhibitors; format: cell-based; conditions: FIG. 10h
macrophages [2] = experiment: Macrophage viability
macrophages [3] = experiment: Protein synthesis in macrophages; format: cell-based, mice
[4] = tested on: bone marrow derived macrophages; experiment: Calcium fluorimetry (Fluo3) in macrophages; format: cell-based, mice; conditions: Fluo-3, FIG. 10a

In the case of `CC(=O)OCOC(=O)CN(CC(=O)OCOC(C)=O)c1ccccc1OCCOc1ccccc1N(CC(=O)OCOC(C)=O)CC(=O)OCOC(C)=O` [BAPTA-AM], the “lysosomal delivery of mycobacteria” value ([1]; BAPTA-AM 1 μM, FIG. 10c,d) is reported as “virtually all mycobacteria were transported to lysosomes” and the “survival of mycobacteria within macrophages” value (Mycobacterium bovis BCG; BAPTA-AM present, FIG. 10e) is reported as “killed”.
With `C=CC[C@@H]1/C=C(\C)C[C@H](C)C[C@H](OC)[C@H]2O[C@@](O)(C(=O)C(=O)N3CCCC[C@H]3C(=O)O[C@H](/C(C)=C/[C@@H]3CC[C@@H](O)[C@H](OC)C3)[C@H](C)[C@@H](O)CC1=O)[C@H](C)C[C@@H]2OC` [FK506, tacrolimus] the bacterial proliferation (mycobacteria) was “identical in the presence or absence”, the “lysosomal delivery of mycobacteria” value ([1]; FK506 0.5 μM, FIG. 10g) was “complete relocation of mycobacteria to lysosomes” and the “survival of mycobacteria within macrophages” value (Mycobacterium bovis BCG; wild type bone marrow derived macrophages, calcineurin inhibitor present, FIG. 10h) was “unable to survive within macrophages”.
For `C[C@@H]1C[C@@H]([C@H](O)CC2CC(=O)NC(=O)C2)C(=O)[C@@H](C)C1` [cycloheximide], the macrophage viability (macrophages [2]) was “without compromising macrophage viability”, the protein synthesis (macrophages [3]) was “efficiently blocked protein synthesis” and the “intracellular routing of mycobacteria” value [1] was “did not result in alteration”. For the same compound, the survival of mycobacteria (Mycobacterium bovis BCG) was “did not result in alteration”.
In the case of `C[C@H](CCC(=O)O)C[C@H](C)C[C@H](C)C(=O)/C=C(\O)[C@H](C)C[C@H](C)C/C=C/[C@@H](C)[C@@H](O)[C@@H](C)[C@@H](O)C[C@@H]1CC[C@@](C)([C@H]2CC[C@@](C)([C@@H](C)O)O2)O1` [ionomycin], the “cytosolic Ca2+ flux upon stimulation” value ([4]; coronin 1 deficient macrophages) is reported as “no Ca^2+ flux was observed” and the “cytosolic Ca2+ flux upon stimulation” value ([4]; macrophages from wild type mice) is reported as “accompanied with a flux of cytosolic Ca^2+”.
